From PubChem BioAssay AID330 (DTP/NCI, 2004)
Where “and” joins values, the source holds several entries; their conditions need not be identical. Identical values can stand only once. Inconclusive results and toxic doses are left out.

Test system: P388 leukemia ip, CD2F1 mice, survival T/C
Assay: NCI In Vivo Anticancer Drug Screen. Data for tumor model P388 Leukemia (intraperitoneal) in CD2F1 (CDF1) mice
Conditions: endpoint: median survival time, higher = longer survival
Procedure, shortened: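 Mice carrying the transplanted tumor received test compound or vehicle. Survival was recorded in each group, and the value is the treated-group measurement divided by that of the vehicle-treated control group.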

[1] = dose: 12.5 mg/kg/injection, schedule: Q01DX005 (ip), vehicle: Klucel (hydroxypropylcellulose) (HPC)
[2] = dose: 50.0 mg/kg/injection, schedule: Q01DX005 (ip), vehicle: Klucel (hydroxypropylcellulose) (HPC)
[3] = dose: 100.0 mg/kg/injection, schedule: Q01DX005 (ip), vehicle: Klucel (hydroxypropylcellulose) (HPC)
[4] = dose: 200.0 mg/kg/injection, schedule: Q01DX005 (ip), vehicle: Klucel (hydroxypropylcellulose) (HPC)
[5] = dose: 60.0 mg/kg/injection, schedule: Q01DX005 (ip), vehicle: saline with Tween-80
[6] = dose: 120.0 mg/kg/injection, schedule: Q01DX005 (ip), vehicle: saline with Tween-80
[7] = dose: 240.0 mg/kg/injection, schedule: Q01DX005 (ip), vehicle: saline with Tween-80
[8] = dose: 50.0 mg/kg/injection, schedule: Q01DX005 (ip), vehicle: saline with Tween-80
[9] = dose: 100.0 mg/kg/injection, schedule: Q01DX005 (ip), vehicle: saline with Tween-80
[10] = dose: 200.0 mg/kg/injection, schedule: Q01DX005 (ip), vehicle: saline with Tween-80
[11] = dose: 60.0 mg/kg/injection, schedule: Q01DX005 (ip), vehicle: Klucel (hydroxypropylcellulose) (HPC)
[12] = dose: 120.0 mg/kg/injection, schedule: Q01DX005 (ip), vehicle: Klucel (hydroxypropylcellulose) (HPC)
[13] = dose: 240.0 mg/kg/injection, schedule: Q01DX005 (ip), vehicle: Klucel (hydroxypropylcellulose) (HPC)

## CCOC(=O)C(CC)c1ccncc1C (configuration not stated)
dose: 25.0 mg/kg/injection, schedule: Q04DX002 (ip), vehicle: saline with Tween-80
  T/C: 106 % of control
dose: 50.0 mg/kg/injection, schedule: Q04DX002 (ip), vehicle: saline with Tween-80
  T/C: 114 % of control
dose: 100.0 mg/kg/injection, schedule: Q04DX002 (ip), vehicle: saline with Tween-80
  T/C: 118 % of control
dose: 200.0 mg/kg/injection, schedule: Q04DX002 (ip), vehicle: saline with Tween-80
  T/C: 110 % of control

## CCCCC(C)(C(=O)OCC)C(=O)OCC
[1]
  T/C: 105 % of control
dose: 25.0 mg/kg/injection, schedule: Q01DX005 (ip), vehicle: Klucel (hydroxypropylcellulose) (HPC)
  T/C: 105 % of control
[2]
  T/C: 105 % of control
[3]
  T/C: 105 % of control
[4]
  T/C: 111 % of control
dose: 400.0 mg/kg/injection, schedule: Q01DX005 (ip), vehicle: Klucel (hydroxypropylcellulose) (HPC)
  T/C: 105 % of control

## C/C1=C/C(O)C/C(C)=C\C(O)C(=O)/C=C/C2C(CC1)C2(C)C (configuration not stated)
dose: 2.5 mg/kg/injection, schedule: Q01DX005 (ip), vehicle: distilled water + Tween-80 + alcohol
  T/C: 104 % of control
dose: 5.0 mg/kg/injection, schedule: Q01DX005 (ip), vehicle: distilled water + Tween-80 + alcohol
  T/C: 105 % of control
dose: 10.0 mg/kg/injection, schedule: Q01DX005 (ip), vehicle: distilled water + Tween-80 + alcohol
  T/C: 100 % of control
dose: 20.0 mg/kg/injection, schedule: Q01DX005 (ip), vehicle: distilled water + Tween-80 + alcohol
  T/C: 108 % of control

## N#CSc1ccc2nc(NC(NC=O)C(Cl)(Cl)Cl)sc2c1 (configuration not stated)
dose: 6.25 mg/kg/injection, schedule: Q01DX009 (ip), vehicle: Klucel (hydroxypropylcellulose) (HPC)
  T/C: 105 % of control
dose: 12.5 mg/kg/injection, schedule: Q01DX009 (ip), vehicle: Klucel (hydroxypropylcellulose) (HPC)
  T/C: 110 % of control
dose: 25.0 mg/kg/injection, schedule: Q01DX009 (ip), vehicle: Klucel (hydroxypropylcellulose) (HPC)
  T/C: 103 % of control

## OCCN(CCO)c1nc(N(CCO)CCO)c(N2CCCCC2)c(N2CCCCC2)n1
dose: 100.0 mg/kg/injection, schedule: Q04DX002 (ip), vehicle: saline
  T/C: 104 % of control
dose: 200.0 mg/kg/injection, schedule: Q04DX002 (ip), vehicle: saline
  T/C: 105 % of control
dose: 400.0 mg/kg/injection, schedule: Q04DX002 (ip), vehicle: saline
  T/C: 98 % of control

## Nc1ccc(OCCNS(=O)(=O)c2cccc(S(=O)(=O)F)c2)c(Cl)c1
dose: 37.5 mg/kg/injection, schedule: Q01DX001 (ip), vehicle: saline with Tween-80
  T/C: 95 % of control
dose: 75.0 mg/kg/injection, schedule: Q01DX001 (ip), vehicle: saline with Tween-80
  T/C: 95 % of control
dose: 150.0 mg/kg/injection, schedule: Q01DX001 (ip), vehicle: saline with Tween-80
  T/C: 90 % of control

## N#CC(=NCCO)C1=C(O)c2ccccc2C1=O
[5]
  T/C: 107 % of control
[6]
  T/C: 97 % of control
[7]
  T/C: 95 % of control

## CSc1ncc(Br)c(Sc2nccn2C)n1
[5]
  T/C: 112 % of control
[6]
  T/C: 117 % of control
[7]
  T/C: 114 % of control

## CCOn1nnc2c([N+](=O)[O-])cccc21
[8]
  T/C: 96 % of control
[9]
  T/C: 92 % of control

## Cn1c(=O)c2c(ncn2CCNC(c2ccccc2)c2ccccc2)n(C)c1=O
dose: 50.0 mg/kg/injection, schedule: Q01DX005 (ip), vehicle: water
  T/C: 107 % of control
dose: 100.0 mg/kg/injection, schedule: Q01DX005 (ip), vehicle: water
  T/C: 107 % of control
dose: 200.0 mg/kg/injection, schedule: Q01DX005 (ip), vehicle: water
  T/C: 107 % of control

## C/C(=N\NC(=S)Nc1ccc(C(=O)O)cc1C)c1ccc2ccccc2n1
[8]
  T/C: 109 % of control
[9]
  T/C: 107 % of control
[10]
  T/C: 119 % of control

## COC(=O)c1nc(N)nc(C(=O)OC)c1C(=O)C(C)(C)C
[5]
  T/C: 96 % of control
[6]
  T/C: 96 % of control

## CC(/C=C/C1OC(=O)C=CC1C)=C\C(C)C/C=C/C(C)=C/C(C)C(=O)C(C)C(O)C(C)C/C(C)=C/C(=O)O (configuration not stated)
dose: 2.5 micrograms/kg/injection, schedule: Q01DX005 (ip), vehicle: saline + alcohol
  T/C: 101 % of control
dose: 5.0 micrograms/kg/injection, schedule: Q01DX005 (ip), vehicle: saline + alcohol
  T/C: 99 % of control
dose: 10.0 micrograms/kg/injection, schedule: Q01DX005 (ip), vehicle: saline + alcohol
  T/C: 106 % of control
dose: 20.0 micrograms/kg/injection, schedule: Q01DX005 (ip), vehicle: saline + alcohol
  T/C: 100 % of control
dose: 100.0 micrograms/kg/injection, schedule: Q01DX005 (ip), vehicle: alcohol
  T/C: 150 % of control
dose: 200.0 micrograms/kg/injection, schedule: Q01DX005 (ip), vehicle: alcohol
  T/C: 159 % of control

## N#CC1CCCC2OCC(c3ccccc3)N12 (configuration not stated)
[11]
  T/C: 119 % of control
[12]
  T/C: 119 % of control
[13]
  T/C: 117 % of control

## CC1(C)Cc2c(nc3ccccc3c2C(N)=O)-c2ccccc21
[2]
  T/C: 88 % of control
[3]
  T/C: 88 % of control
[4]
  T/C: 88 % of control

## COC(=O)C(CCC1NCCc2c1[nH]c1ccccc21)(Sc1ccccc1)Sc1ccccc1 (configuration not stated)
[11]
  T/C: 108 % of control
[12]
  T/C: 105 % of control
[13]
  T/C: 103 % of control

## C=CCN1C(=O)CS/C1=N\NC(=O)Cc1nc2ccccc2[nH]1
dose: 100.0 mg/kg/injection, schedule: Q01DX001 (ip), vehicle: Klucel (hydroxypropylcellulose) (HPC)
  T/C: 101 % of control
dose: 200.0 mg/kg/injection, schedule: Q01DX001 (ip), vehicle: Klucel (hydroxypropylcellulose) (HPC)
  T/C: 105 % of control
dose: 400.0 mg/kg/injection, schedule: Q01DX001 (ip), vehicle: Klucel (hydroxypropylcellulose) (HPC)
  T/C: 92 % of control

## Nc1nc(Cl)nc(Nc2ccc(-c3cc4ccc(-c5ncc[nH]5)cc4[nH]3)cc2)n1
[11]
  T/C: 88 % of control
[12]
  T/C: 88 % of control
[13]
  T/C: 87 % of control

## O=S(=O)(O)CN1CCN(CCN(CS(=O)(=O)O)CS(=O)(=O)O)CC1
[2]
  T/C: 100 % of control
[3]
  T/C: 100 % of control
[4]
  T/C: 96 % of control

## O=C1CN2CCN3CC(=O)NC(=O)[C@H]3[C@H]2C(=O)N1
[5]
  T/C: 101 % of control
[6]
  T/C: 101 % of control
[7]
  T/C: 93 % of control

## CCOC(=Nc1ccc(C#N)cc1)SC(c1ccccc1)(c1ccccc1)c1ccccc1
[8]
  T/C: 104 % of control
[9]
  T/C: 96 % of control
[10]
  T/C: 86 % of control

## Nc1ccc(C(=O)c2ccccc2)cc1
dose: 25.0 mg/kg/injection, schedule: Q01DX009 (ip), vehicle: saline with Tween-80
  T/C: 93 % of control
dose: 50.0 mg/kg/injection, schedule: Q01DX009 (ip), vehicle: saline with Tween-80
  T/C: 100 % of control
dose: 100.0 mg/kg/injection, schedule: Q01DX009 (ip), vehicle: saline with Tween-80
  T/C: 102 % of control

## O=P(CCCCP(=O)(c1ccccc1)c1ccccc1)(c1ccccc1)c1ccccc1.[Cl][Sn]([Cl])([c]1ccccc1)[c]1ccccc1
dose: 1.56 mg/kg/injection, schedule: Q01DX005 (ip), vehicle: Klucel (hydroxypropylcellulose) (HPC)
  T/C: 114 % of control
dose: 3.12 mg/kg/injection, schedule: Q01DX005 (ip), vehicle: Klucel (hydroxypropylcellulose) (HPC)
  T/C: 114 % of control
[1]
  T/C: 115 % of control

## COc1cccc2c1C(=O)c1c(O)c3c(c(O)c1C2=O)C[C@@](O)(C(O)CO)C[C@@H]3OC1CC(N)C(O)C(C)O1 (some centres not stated)
dose: 0.78 mg/kg/injection, schedule: Q01DX009 (ip), vehicle: water
  T/C: 155 % of control and 150 % of control
dose: 1.56 mg/kg/injection, schedule: Q01DX009 (ip), vehicle: water
  T/C: 174 % of control and 168 % of control
dose: 2.0 mg/kg/injection, schedule: Q01DX009 (ip), vehicle: water
  T/C: 183 % of control
dose: 3.13 mg/kg/injection, schedule: Q01DX009 (ip), vehicle: water
  T/C: 192 % of control and 200 % of control
dose: 4.0 mg/kg/injection, schedule: Q01DX009 (ip), vehicle: water
  T/C: 211 % of control
dose: 6.25 mg/kg/injection, schedule: Q01DX009 (ip), vehicle: water
  T/C: 260 % of control and 197 % of control and 264 % of control
dose: 6.25 mg/kg/injection, schedule: Q04DX003 (ip), vehicle: water
  T/C: 116 % of control
dose: 8.0 mg/kg/injection, schedule: Q01DX009 (ip), vehicle: water
  T/C: 266 % of control
dose: 12.5 mg/kg/injection, schedule: Q01DX009 (ip), vehicle: water
  T/C: 95 % of control
dose: 16.0 mg/kg/injection, schedule: Q01DX009 (ip), vehicle: water
  T/C: 94 % of control
dose: 25.0 mg/kg/injection, schedule: Q04DX003 (ip), vehicle: water
  T/C: 198 % of control
dose: 50.0 mg/kg/injection, schedule: Q04DX003 (ip), vehicle: water
  T/C: 172 % of control
